Consider 19 compounds from US9108983B2, “Pyrrole compounds, a process for their preparation and pharmaceutical compositions containing them” (LES LABORATOIRES SERVIER, priority 2013, dated 2015).

Where a name gives a salt, the structure may show the parent alone. Read-outs that look alike come from different tables or passages of the source. Where only a bound is given, the exact number is not on record here.

Test [1] has as its target Bcl-2 protein (histag-Bcl-2, UniProtKB P10415) (Homo sapiens (Human), UniProt P10415). The experiment in a line: Inhibition of Bcl-2 by the fluorescence polarisation technique. The class given is binding. The note with it: incubation for 2 hours, read-out: IC50 (nM) Bcl-2 FP. As to the method:
The fluorescence polarisation tests were carried out on microplates (384 wells). The Bcl-2 protein, labelled (histag-Bcl-2 such that Bcl-2 corresponds to the UniProtKB® primary accession number: P10415), at a final concentration of 2.50×10^−8 M, is mixed with a fluorescent peptide (Fluorescein-[…]), at a final concentration of 1.00×10^−8 M in a buffer solution (Hepes 10 mM, NaCl 150 mM, Tween20 0.05%, pH 7.4), in the presence or absence of increasing concentrations of test compounds. After incubation for 2 hours, the fluorescence polarisation is measured.
For orientation: Fluorescence polarisation rises when a labelled molecule tumbles more slowly, as on binding a larger partner.

Test [2] has as its system RS4;11 leukaemia tumour line. The experiment in a line: In vitro cytotoxicity (Microculture Tetrazolium Assay). The test is classed as cell-based. The note with it: Homo sapiens, RS4;11 cells, exposed for 48 hours, cell viability, read-out: IC50 (nM) MTT RS4;11. The procedure: The cytotoxicity studies were carried out on the RS4;11 leukaemia tumour line.
The cells are distributed onto microplates and exposed to the test compounds for 48 hours.
The cell viability is then quantified by a colorimetric assay, the Microculture Tetrazolium Assay (Cancer Res., 1987, 47, 939-942).

Bcl-2 protein, sequence (P10415 whole entry): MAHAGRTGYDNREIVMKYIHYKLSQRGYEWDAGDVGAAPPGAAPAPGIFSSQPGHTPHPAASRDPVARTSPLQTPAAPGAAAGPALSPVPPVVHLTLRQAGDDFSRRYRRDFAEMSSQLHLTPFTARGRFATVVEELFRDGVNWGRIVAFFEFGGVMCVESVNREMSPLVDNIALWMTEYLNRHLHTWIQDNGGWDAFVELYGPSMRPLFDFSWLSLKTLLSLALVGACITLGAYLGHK

Usually IC50 stands for the concentration that gives 50% inhibition. Take `COc1ccc(C(=O)N2Cc3ccccc3C[C@H]2CN2CCOCC2)c(-c2cc(C(=O)N(c3ccc(O)cc3)c3cnn(C)c3)c(C)n2C)c1` [Example 24, N-(4-Hydroxyphenyl)-5-(5-methoxy-2-{[(3S)-3-(morpholin-4-ylmethyl)-3,4-dihydroisoquinolin-2(1H)-yl]carbonyl}phenyl)-1,2-dimethyl-N-(1-methyl-1H-pyrazol-4-yl)-1H-pyrrole-3-carboxamide hydrochloride]: the IC50 in test [1] is 6.2 nM; in test [2] (RS4-11, 48 h), 79.1 nM.
Take `CNCCn1c(-c2cc3c(cc2C(=O)N2Cc4ccccc4C[C@H]2C)OCO3)cc(C(=O)N(c2ccc(O)cc2)c2cnn(C)c2)c1C` [Example 26, N-(4-Hydroxyphenyl)-2-methyl-1-[2-(methylamino)ethyl]-5-(6-{[(3R)-3-methyl-3,4-dihydroisoquinolin-2(1H)-yl]carbonyl}-1,3-benzodioxol-5-yl)-N-(1-methyl-1H-pyrazol-4-yl)-1H-pyrrole-3-carboxamide hydrochloride]: the IC50 in test [1] was 4.1 nM; in test [2] (RS4-11, 48 h) it was 541 nM.
As to `Cc1c(C(=O)N(c2ccc(O)cc2)c2cnn(C)c2)cc(-c2cc3c(cc2C(=O)N2Cc4ccccc4C[C@H]2C)OCO3)n1CCN(C)C` [Example 27, 1-[2-(Dimethylamino)ethyl]-N-(4-hydroxyphenyl)-2-methyl-5-(6-{[(3R)-3-methyl-3,4-dihydroisoquinolin-2(1H)-yl]carbonyl}-1,3-benzodioxol-5-yl)-N-(1-methyl-1H-pyrazol-4-yl)-1H-pyrrole-3-carboxamide hydrochloride], the IC50 in test [1] turned out to be 5.2 nM; in test [2] (RS4-11, 48 h), 93.4 nM.
As to `Cc1c(C(=O)N(c2ccncc2)c2ccc(O)cc2)cc(-c2cc(Cl)ccc2C(=O)N2Cc3ccccc3C[C@H]2C)n1C` [Example 28, 5-(5-Chloro-2-{[(3R)-3-methyl-3,4-dihydroisoquinolin-2(1H)-yl]carbonyl}phenyl)-N-(4-hydroxyphenyl)-1,2-dimethyl-N-(pyridin-4-yl)-1H-pyrrole-3-carboxamide hydrochloride], the IC50 in test [1] was 7.5 nM; in test [2] (RS4-11, 48 h), 95.3 nM.
For `CC1=C(C(=O)N(c2ccccc2)c2ccc(O)cc2)CC(c2cc(Cl)ccc2C(=O)N2Cc3ccccc3C[C@H]2COCCN2CCOCC2)N1C` (stereo partly drawn) [Example 29, 5-(5-Chloro-2-{[(3S)-3-{[2-(morpholin-4-yl)ethoxy]methyl}-3,4-dihydroisoquinolin-2(1H)-yl]carbonyl}phenyl)-N-(4-hydroxyphenyl)-1,2-dimethyl-N-phenyl-4H-pyrrole-3-carboxamide hydrochloride], in that order: 6.6 nM and 47.5 nM.
For `Cc1c(C(=O)N(c2ccc(O)cc2)c2cnn(C)c2)cc(-c2cc3c(cc2C(=O)N2Cc4ccccc4C[C@H]2C)OCO3)n1CCN` [Example 30, 1-(2-Aminoethyl)-N-(4-hydroxyphenyl)-2-methyl-5-(6-{[(3R)-3-methyl-3,4-dihydroisoquinolin-2(1H)-yl]carbonyl}-1,3-benzodioxol-5-yl)-N-(1-methyl-1H-pyrazol-4-yl)-1H-pyrrole-3-carboxamide hydrochloride] the same measures were 4.7 nM and 771 nM.
For `COc1ccc(C(=O)N2Cc3ccccc3C[C@H]2C)c(-c2cc(C(=O)N(c3ccc(O)cc3)c3cnn(C)c3)c(C)n2C)c1` [Example 31, N-(4-Hydroxyphenyl)-5-(5-methoxy-2-{[(3R)-3-methyl-3,4-dihydroisoquinolin-2(1H)-yl]carbonyl}phenyl)-1,2-dimethyl-N-(1-methyl-1H-pyrazol-4-yl)-1H-pyrrole-3-carboxamide] the same measures were 7.2 nM and 89.3 nM.
As to `Cc1c(C(=O)N(C)c2ccc(O)cc2)cc(-c2ccc(CNC(=O)Oc3ccccc3)cc2C(=O)N2Cc3ccccc3C[C@H]2C)n1C` [Example 32, Phenyl (4-{4-[(4-hydroxyphenyl)(methyl)carbamoyl]-1,5-dimethyl-1H-pyrrol-2-yl}-3-{[(3R)-3-methyl-3,4-dihydroisoquinolin-2(1H)-yl]carbonyl}benzyl)-carbamate], the figures for the IC50 in test [1] and in test [2] were 13.3 nM and 240 nM, respectively.
For `Cc1c(C(=O)N(c2ccc(O)cc2)c2ccc(F)cc2)cc(-c2cc(Cl)ccc2C(=O)N2Cc3ccccc3C[C@H]2CN2CCOCC2)n1C` [Example 33, 5-(5-Chloro-2-{[(3S)-3-(morpholin-4-ylmethyl)-3,4-dihydroisoquinolin-2(1H)-yl]carbonyl}phenyl)-N-(4-fluorophenyl)-N-(4-hydroxyphenyl)-1,2-dimethyl-1H-pyrrole-3-carboxamide hydrochloride], the IC50 in test [1] stood at 10.9 nM; in test [2] (RS4-11, 48 h), 57.8 nM.
For `Cc1c(C(=O)N(c2ccc(O)cc2)c2cccc(F)c2)cc(-c2cc(Cl)ccc2C(=O)N2Cc3ccccc3C[C@H]2CN2CCOCC2)n1C` [Example 34, 5-(5-Chloro-2-{[(3S)-3-(morpholin-4-ylmethyl)-3,4-dihydroisoquinolin-2(1H)-yl]carbonyl}phenyl)-N-(3-fluorophenyl)-N-(4-hydroxyphenyl)-1,2-dimethyl-1H-pyrrole-3-carboxamide hydrochloride], the IC50 in test [1] was 8.2 nM; in test [2] (RS4-11, 48 h) it was 47 nM.
For the compound `Cc1c(C(=O)N(C)c2ccc(O)cc2)cc(-c2ccc(CNC(=O)COc3ccccc3)cc2C(=O)N2Cc3ccccc3C[C@H]2C)n1C` [Example 35, N-(4-Hydroxyphenyl)-N,1,2-trimethyl-5-(2-{[(3R)-3-methyl-3,4-dihydroisoquinolin-2(1H)-yl]carbonyl}-4-{[(phenoxyacetyl)amino]methyl}phenyl)-1H-pyrrole-3-carboxamide], the IC50 is 50 nM in test [1] and 560 nM in test [2] (RS4-11, 48 h).
For `CCNC(=O)NCc1ccc(-c2cc(C(=O)N(C)c3ccc(O)cc3)c(C)n2C)c(C(=O)N2Cc3ccccc3C[C@H]2C)c1` [Example 36, 5-(4-{[(Ethylcarbamoyl)amino]methyl}-2-{[(3R)-3-methyl-3,4-dihydroisoquinolin-2(1H)-yl]carbonyl}phenyl)-N-(4-hydroxyphenyl)-N,1,2-trimethyl-1H-pyrrole-3-carboxamide], in that order: 71.4 nM and > 600 nM.
Take `Cc1c(C(=O)N(C)c2ccc(O)cc2)cc(-c2ccc(CNC(=O)NCc3ccccc3)cc2C(=O)N2Cc3ccccc3C[C@H]2C)n1C` [Example 37, 5-(4-{[(Benzylcarbamoyl)amino]methyl}-2-{[(3R)-3-methyl-3,4-dihydroisoquinolin-2(1H)-yl]carbonyl}phenyl)-N-(4-hydroxyphenyl)-N,1,2-trimethyl-1H-pyrrole-3-carboxamide]: the IC50 in test [1] is 60.4 nM; in test [2] (RS4-11, 48 h), > 600 nM.
For `Cc1c(C(=O)N(c2ccccc2)c2ccc(O)cc2)cc(-c2cc(Cl)ccc2C(=O)N2Cc3ccccc3C[C@H]2CO)n1C` [Example 38, 5-(5-Chloro-2-{[(3S)-3-(hydroxymethyl)-3,4-dihydroisoquinolin-2(1H)-yl]carbonyl}phenyl)-N-(4-hydroxyphenyl)-1,2-dimethyl-N-phenyl-1H-pyrrole-3-carboxamide], the IC50 in test [1] worked out at 7.5 nM; in test [2] (RS4-11, 48 h), 134 nM.
For `Cc1c(C(=O)N(c2ccc(O)cc2)c2cnn(C)c2)cc(-c2cc3c(cc2C(=O)N2Cc4ccccc4C[C@H]2C)OCO3)n1C` [Example 39, N-(4-Hydroxyphenyl)-1,2-dimethyl-5-(6-{[(3R)-3-methyl-3,4-dihydroisoquinolin-2(1H)-yl]carbonyl}-1,3-benzodioxol-5-yl)-N-(1-methyl-1H-pyrazol-4-yl)-1H-pyrrole-3-carboxamide], in that order: 7.2 nM and 19.7 nM.
For the compound `Cc1c(C(=O)N(C)c2ccc(O)cc2)cc(-c2cc(CNC(=O)Oc3ccccc3)ccc2C(=O)N2Cc3ccccc3C[C@H]2C)n1C` [Example 40, Phenyl (3-{4-[(4-hydroxyphenyl)(methyl)carbamoyl]-1,5-dimethyl-1H-pyrrol-2-yl}-4-{[(3R)-3-methyl-3,4-dihydroisoquinolin-2(1H)-yl]carbonyl}benzyl)-carbamate], the results for the IC50 in test [1] and in test [2] were 64.4 nM and 431 nM, respectively.
As for `Cc1c(C(=O)N(c2ccc(O)cc2)c2cccc(F)c2)cc(-c2cc3c(cc2C(=O)N2Cc4ccccc4C[C@H]2C)OCO3)n1C` [Example 41, N-(3-Fluorophenyl)-N-(4-hydroxyphenyl)-1,2-dimethyl-5-(6-{[(3R)-3-methyl-3,4-dihydroisoquinolin-2(1H)-yl]carbonyl}-1,3-benzodioxol-5-yl)-1H-pyrrole-3-carboxamide], the IC50 in test [1] worked out at 10 nM; in test [2] (RS4-11, 48 h), 22.6 nM.
Regarding `Cc1c(C(=O)N(c2ccc(O)cc2)c2cnc3c(ccn3C)c2)cc(-c2cc3c(cc2C(=O)N2Cc4ccccc4C[C@H]2C)OCO3)n1C` [Example 42, N-(4-Hydroxyphenyl)-1,2-dimethyl-5-(6-{[(3R)-3-methyl-3,4-dihydroisoquinolin-2(1H)-yl]carbonyl}-1,3-benzodioxol-5-yl)-N-(1-methyl-1H-pyrrolo[2,3-b]pyridin-5-yl)-1H-pyrrole-3-carboxamide], the IC50 in test [1] was 5.2 nM; in test [2] (RS4-11, 48 h), 4.36 nM.
On to `Cc1c(C(=O)N(c2ccccc2)c2ccc(O)cc2)cc(-c2cc3c(cc2C(=O)N2Cc4ccccc4C[C@H]2C)OCO3)n1C` [Example 43, N-(4-Hydroxyphenyl)-1,2-dimethyl-5-(6-{[(3R)-3-methyl-3,4-dihydroisoquinolin-2(1H)-yl]carbonyl}-1,3-benzodioxol-5-yl)-N-phenyl-1H-pyrrole-3-carboxamide], for which the IC50 in test [1] amounted to 5.1 nM; in test [2] (RS4-11, 48 h), 28.9 nM.
